Measured values taken from patent US12064502B2, “Peptide exhibiting wrinkle-improving activity and uses thereof” (CAREGEN CO., LTD., priority 2017, dated 2024).
Values joined by “and” are separate entries in the source; they are usually repeats but may differ in a detail not shown here. Equal values may be shown once.

Legend:
[1] = test system: collagen1a, fibronectin, elastin mRNA; assay: RT-PCR of collagen1a, fibronectin and elastin in fibroblasts; assay type: cell-based, mouse; details: 10 μM or 50 μM, NIH3T3, 24 hours
Protocol: Mouse fibroblast NIH3T3 was seeded in a 6-well plate at a density of 5×10^3 cells/well, and then cultured overnight. Subsequently, the media were changed to 0.05% FBS-containing media, followed by culturing for 4 hours. Then, treatment with the positive control, i.e., 100 nM IGF-1, and 10 μM or 50 μM of the peptide consisting of an amino acid sequence of SEQ ID NO: 1, 2, 3, or 4 were performed and cultured for 24 hours. Then, the cells were cultured and collected to isolate RNA. cDNA was synthesized using a cDNA synthesis kit (Intron, Korea) after quantification of RNA, and PCR was carried out using primers of each of PCR premix (Intron, Korea) and collagen1a, fibronectin, elastin, GAPDH in Table 4. Then, the cells were run on 5% agarose gel, and degrees of mRNA expression of the growth factors were compared in each peptide treatment condition.

[2] = test system: MAPK (ERK, p38, and JNK) and AKT; assay: Phosphorylation level of MAPK and AKT in fibroblasts (western blotting); assay type: cell-based, mouse; details: 10 μM or 50 μM, NIH3T3, 30 minutes
Protocol: Mouse fibroblast NIH3T3 was seeded in a 6-well plate at a density of 5×10^3 cells/well, and then cultured overnight. Subsequently, the media were changed to 0.05% FBS-containing media. Then, treatment with the positive control, i.e., 100 nM bFGF, and 10 μM or 50 μM of the peptide consisting of an amino acid sequence of SEQ ID NO: 1, 2, 3, or 4 were performed and cultured for 30 minutes. Then, the cells were collected to prepare cell lysate. Then, western blotting was performed using P-MAPK (p-Erk, p-JNK, p-p38) and p-Akt or actin antibody (Santacruz Biotechnology, USA).

[3] = test system: Mouse fibroblast NIH3T3; assay: Promotion of proliferation of fibroblasts (MTT assay); assay type: cell-based; details: NIH3T3, 3 days; for Fibroblast proliferation (result in words): 10 μM or 50 μM; for Fibroblast proliferation (%): MTT, control = 100
Protocol: Mouse fibroblast NIH3T3 was seeded in a 96-well plate at a density of 5×10^3 cells/well, and then cultured overnight. Subsequently, the media were changed to 0.05% serum-containing media. Then, treatment with the positive control, i.e., 100 nM bFGF, and 10 μM or 50 μM of the peptide consisting of an amino acid sequence of SEQ ID NO: 1, 2, 3, or 4 were performed and cultured for 3 days. Then, 4 mg/mL MTT solution treatment was performed, and the reaction was carried out for 4 hours. Then, the resulting formazan was dissolved by treatment with dimethyl sulfoxide (hereinafter referred to as “DMSO”), and the absorbance at 560 nm was measured using a microplate reader.

[4] = test system: Human keratinocyte HaCaT; assay: Promotion of proliferation of keratinocytes (MTT assay); assay type: cell-based; details: 3 days, control = 100
Protocol: Human keratinocyte HaCaT was seeded in a 6-well plate at a density of 3×10^5 cells/well, and then cultured overnight. Subsequently, the media were changed to 0.05% serum-containing media. Then, treatment with the positive control, i.e., 10 nM EGF, and 10 μM or 50 μM of the peptide consisting of an amino acid sequence of SEQ ID NO: 1, 2, 3, or 4 were performed and cultured for 3 days. Then, 4 mg/mL MTT solution treatment was performed, and the reaction was carried out for 4 hours. Then, the resulting formazan was dissolved by treatment with dimethyl sulfoxide (hereinafter referred to as “DMSO”), and the absorbance at 560 nm was measured using a microplate reader.

[5] = test system: Procollagen1a; assay: Procollagen1a ELISA; assay type: cell-based, mouse; details: for Pro-collagen1a protein expression (result in words): NIH3T3, 72 hours, ELISA; for Procollagen1a expression (%): NIH3T3 medium, 72 hours, control = 100
Protocol: Mouse fibroblast NIH3T3 was seeded in a 6-well plate at a density of 5×10^3 cells/well, and then cultured overnight. Subsequently, the media were changed to 0.05% FBS-containing media, followed by culturing for 4 hours. Then, treatment with the positive control, i.e., 100 nM IGF-1, and the peptide consisting of an amino acid sequence of SEQ ID NO: 1, 2, 3, or 4 were performed and cultured for 72 hours. Then, the media were collected. The amount in the medium was measured using Procollagen1a ELISA kit (Usbiological Lifescience, USA).

[6] = test system: HA; assay: HA ELISA; assay type: cell-based, human; details: 72 hours; for HA expression: HaCaT medium, control 251
Protocol: Human keratinocyte HaCaT was seeded in a 6-well plate at a density of 3×10^5 cells/well, and then cultured overnight. The media were changed to 0.05% FBS-containing media, followed by culturing for 4 hours. Then, treatment with the positive control, i.e., 100 nM IGF-1, and the peptide consisting of an amino acid sequence of SEQ ID NO: 2 were performed and cultured for 72 hours. Then, the media were collected. An HA ELISA kit (Echelon, USA) was used to measure an amount thereof.

[7] = test system: AQP3; assay: RT-PCR of AQP3 (Aquaporin3) and SIRT1 in keratinocytes; assay type: cell-based, human; details: 10 μM or 50 μM, HaCaT, 24 hours
Protocol: Human keratinocyte HaCaT was seeded in a 6-well plate at a density of 3×10^5 cells/well, and then cultured overnight. Subsequently, the media were changed to 0.05% FBS-containing media, followed by culturing for 4 hours. Then, treatment with the positive control, i.e., 100 nM EGF, and 10 μM or 50 μM of the peptide consisting of an amino acid sequence of SEQ ID NO: 1 or 2 were performed and cultured for 24 hours. Then, the cells were cultured and collected to isolate RNA. cDNA was synthesized using a cDNA synthesis kit (Intron, Korea) after quantification of RNA, and PCR was carried out using primers of each of PCR premix (Intron, Korea) and AQP3, SIRT1, and GAPDH in Table 5. Then, the cells were run on 5% agarose gel, and degrees of mRNA expression of the growth factors were compared in each peptide treatment condition.

[8] = test system: ERK and p38; assay: Phosphorylation level of MAPK and AKT in keratinocytes (western blotting); assay type: cell-based, human; details: 10 μM or 50 μM, HaCaT, 30 minutes
Protocol: Human keratinocyte HaCaT was seeded in a 6-well plate at a density of 3×10^5 cells/well, and then cultured overnight. Subsequently, the media were changed to 0.05% FBS-containing media. Then, treatment with the positive control, i.e., 10 nM EGF, and 10 μM or 50 μM of the peptide consisting of an amino acid sequence of SEQ ID NO: 1 or 2 were performed and cultured for 30 minutes. Then, the cells were collected to prepare cell lysate. Then, western blotting was performed using P-MAPK (p-Erk, p-JNK, p-p38) and p-Akt antibody (Santacruz Biotechnology, USA).

[9] = test system: collagen 1a, fibronectin, and elastin; assay: Expression amount of collagen1a, fibronectin and elastin protein (antibody staining, fluorescence microscope); assay type: cell-based, mouse; details: NIH3T3, 24 hours
Protocol: Mouse fibroblast NIH3T3 was seeded in a 6-well plate at a density of 5×10^3 cells/well, and then cultured overnight. Subsequently, the media were changed to 0.05% serum-free media. Then, treatment with the positive control, i.e., 100 nM EGF, and the peptide consisting of an amino acid sequence of SEQ ID NO: 1 or 2 were performed and cultured for 24 hours. Then, the cells were fixed for 30 minutes using 4% paraformaldehyde. Then, after washing 3 times, the cells were reacted with 0.5% Triton X-100 for 15 minutes and washed again 3 times. Then, 3% BSA was blocked for 1 hour and the primary antibody (1:100) for collagen 1a, fibronectin, and elastin was reacted overnight at 4° C. Then, the secondary antibody (1:500) was reacted at room temperature for 2 hours, stained with DAPI staining, and observation was made with a fluorescence microscope.

Substance	mRNA expression of collagen, fibronectin and elastin (result in words) [1]	Phosphorylation of MAPK and AKT in fibroblasts (result in words) [2]	Fibroblast proliferation (result in words) [3]	Fibroblast proliferation (%) ([3]; peptide 10 μM)	Fibroblast proliferation (%) ([3]; peptide 50 μM)	Keratinocyte proliferation (%) ([4]; peptide 10 μM)	Keratinocyte proliferation (%) ([4]; peptide 50 μM)	Pro-collagen1a protein expression (result in words) [5]	Procollagen1a expression (%) ([5]; peptide 10 μM)	Procollagen1a expression (%) ([5]; peptide 50 μM)	Keratinocyte proliferation (%) ([4]; positive control 10 nM)	Procollagen1a expression (%) ([5]; positive control 100 nM)	HA expression ([6]; positive control 100 nM)	AQP3 expression (result in words) [7]	HA expression (result in words) ([6]; HaCaT, ELISA)	HA expression ([6]; peptide 10 μM)	HA expression ([6]; peptide 50 μM)	Phosphorylation of MAPK in keratinocytes (result in words) [8]	Protein expression of collagen, fibronectin and elastin (result in words) [9]	Fibroblast proliferation (%) ([3]; positive control 100 nM)
EDEFKPPAAGR [SEQ ID NO: 4]	increasing expression of mRNA of collagen, fibronectin, and elastin	activation of MAPK (ERK, p38, and JNK) and AKT	promote fibroblast proliferation	114%	193%	113%	142%	expression of pro-collagen1a protein was found to increase	122%	141%	–	–	–	–	–	–	–	–	–	–
EGF: positive control, 10 nM EGF, in the keratinocyte tests [reference compound]	–	–	–	–	–	–	–	–	–	–	187% and 142% and 152%	–	–	–	–	–	–	–	–	–
GPVH [SEQ ID NO: 3]	increasing expression of mRNA of collagen, fibronectin, and elastin	activation of MAPK (ERK, p38, and JNK) and AKT	promote fibroblast proliferation	194%	261%	183%	197%	expression of pro-collagen1a protein was found to increase	138%	143%	–	–	–	–	–	–	–	–	–	–
IGF-1: positive control, 100 nM IGF-1, in the ELISA and RT-PCR tests [reference compound]	–	–	–	–	–	–	–	–	–	–	–	113% and 140%	280 ng/mL	–	–	–	–	–	–	–
ILGRWCG [SEQ ID NO: 2]	increasing expression of mRNA of collagen, fibronectin, and elastin	activation of MAPK (ERK, p38, and JNK) and AKT	promote fibroblast proliferation	188%	253%	111%	119%	expression of pro-collagen1a protein was found to increase	145%	146%	–	–	–	increasing AQP3 expression	increasing HA expression	286 ng/mL	292 ng/mL	activation of ERK and p38	increasing expression of proteins of collagen, fibronectin, and elastin	–
KWGGGRY [SEQ ID NO: 1]	increasing expression of mRNA of collagen, fibronectin, and elastin	activation of MAPK (ERK, p38, and JNK) and AKT	promote fibroblast proliferation	170%	194%	120%	136%	expression of pro-collagen1a protein was found to increase	98%	157%	–	–	–	increasing AQP3 expression	–	–	–	activation of ERK and p38	increasing expression of proteins of collagen, fibronectin, and elastin	–
bFGF: positive control, 100 nM bFGF, in the fibroblast tests [reference compound]	–	–	–	–	–	–	–	–	–	–	–	–	–	–	–	–	–	–	–	386% and 279% and 400%
